# Reference: US5093134A, “Method of treating HIV infection using polyoxometallates” (Johnson Matthey Public Limited Company, priority 1989, dated 1992)
# Values joined by “and” are separate entries in the source; they are usually repeats but may differ in a detail not shown here. Equal values may be shown once.
# Columns and labels:
# [1] = in vitro; settings: human, mt-4 cells
# Description: (§1) The compounds were tested in a screen by the MTT method (J. Virol. Methods […]: 309-321 [1988]). MT-4 cells (2.5×10^4 /well) were infected with HIV-1 (HTLV-IIIB) or HIV-2 (LAV-2 ROD) at a concentration of 100 CCID50 and incubated in the presence of various concentrations of the test compounds, which were added immediately after infection with the virus. After 5 days culture at 37° C. in a CO2 incubator, the number of viable cells was assessed by the MTT (tetrazolium) method. […] The potential therapeutic usefulness was assessed by calculating a Selectivity Index (SI) corresponding to the ratio of CD50 to ED50.
# [2] = tested on: MT-4 cells; test: in vitro
# Description: as §1
# [3] = tested on: cells; settings: in words; cited from earlier work
# [4] = tested on: HIV-1 (HTLV-IIIB); test: microbe, parasite or virus in culture; format: cell-based; settings: for Selectivity Index (SI), ratio of CD50 to ED50 / ED50: HIV-1, MT-4 cells; for ED50: 100 CCID50, 5 days, MTT
# Description: as §1
# [5] = tested on: HIV-2 (LAV-2 ROD); test: MTT screen of HIV-2 infected MT-4 cells (antiviral activity); format: cell-based; settings: for ED50: 100 CCID50, 5 days, MTT
# Description: as §1
# [6] = tested on: herpes virus; settings: in words; cited from earlier work
# [7] = tested on: reverse transcriptase; settings: in words; cited from earlier work
# [8] = tested on: HIV; settings: in words; cited from earlier work
Molecule,"Selectivity Index (SI), ratio of CD50 to ED50 [4]",ED50 [4] [µg/mL],"Selectivity Index (SI), ratio of CD50 to ED50 [5]",ED50 [5] [µg/mL],also measured
"Cc1cn([C@H]2C[C@H](N=[N+]=[N-])[C@@H](CO)O2)c(=O)[nH]c1=O [AZT, reference compound]",125 and > 125,,,,"CC50 at 120 h [1]: > 1000 nM; toxicity (in words) [2]: rather high toxicity; toxicity to cells [3]: high toxicity to cells; EC50 ([4]; Human immunodeficiency virus 1, IIIB, MT4, 120 h, read-out: ED50): < 8 nM"
((CH3)3 NH^+)5 [SiSn(CH3)W11 O39 ]yH2 O [Compound C],40,0.57,19,3.48,
(C5 H5 NH^+)6 [SiCo(C5 H5 N)W11 O39 ]yH2 O [Compound A],> 502,1.99,> 415,2.41,"CD50 ([2]; human, mt-4 cells, 120 h): > 1000.0 µg/mL"
(C6 H11 NH3^+)6 [SiCo(C6 H11 NH2)W11 O39 ]yH2 O [Compound B],99,0.98,26,3.01,
K5 BW12 O40,,,,,activity against herpes virus [6]: activity against herpes virus
K5 [BPt(OH2)W11 O39 ]yH2 O,198,1.66,49,6.21,
K5 [PCu(OH2)W11 O39 ]yH2 O,> 82,3.04,> 68,< 2.0,
K5 [PNi(OH2)W11 O39 ]14H2 O,< 1,> 250.0,< 1,> 250.0,
K5 [SiGa(OH2)W11 O39 ]yH2 O,100,1.06,14,6.19,
K6 [BGa(OH2)W11 O39 ]yH2 O,5151,0.12,298,1.62,
K6 [BRh(OH2)W11 O39 ]14H2 O,97,5.88,18,31.58,
K6 [SiCo(OH2)W11 O39 ]yH2 O,> 52,< 2.0,> 15,< 2.0,
K6 [SiCu(OH2)W11 O39 ]yH2 O,> 84,< 2.0,> 125,< 2.0,
K6 [SiNi(OH2)W11 O39 ]15H2 O,103,1.93,55,3.58,"CD50 ([2]; human, mt-4 cells, 120 h): 198.43 µg/mL"
K7 PW10 Ti2 O40,,,,,activity against herpes virus [6]: activity against herpes virus
K7 [BCo(OH2)W11 O39 ]yH2 O,47,2.74,< 1,> 200.0,
K7 [BCu(OH2)W11 O39 ]yH2 O,32,3.51,62,2.56,
K13 [Ce(SiW11 O39)2 ]26H2 O,> 2561,0.39,> 6357,0.157,"CD50 ([2]; human, mt-4 cells, 120 h): > 1000.0 µg/mL"
"NaSb9 W21 O86 [HPA-23, reference compound]",3,2.8,< 1,> 4,"CD50 ([2]; HIV-1, MT-4 cells, 5 days, 37° C., MTT): 7.4 µg/mL; CD50 ([2]; HIV-2, MT-4 cells, 5 days, 37° C., MTT): 2.4 µg/mL; reverse transcriptase inhibition [7]: reverse transcriptase inhibitor"
silicotungstate acid [H4 SiW12 O40],,,,,activity against HIV [8]: activity against HIV
